The clearance is the rate of elimination divided by the concentration. The term Cmax denotes the maximum level reached in the sampled fluid or tissue. Usually IC50 stands for the concentration that gives 50% inhibition. One may read the viability as a read-out of living cells in per cent, often relative to untreated cells.

A short description of data set [1]: Plasma pharmacokinetics after i.v. injection (LC-MS/MS). In kind it is in vivo. The following applies: Swiss CD1, mouse, iv, mice. Here is the method: (§1) Mice were sacrificed at different time points up to 48 h after the injection and blood and brain were harvested. Blood was collected from the cava vein in tubes coated with Li-heparin anticoagulant and centrifuged at +4 °C, 3000 g for 10 min to obtain the plasma. After blood collection, brain was harvested, washed in saline, dried on absorbent paper, weighed, and placed into appropriate tubes. All samples were analyzed for their Givinostat content using the LC-MS/MS method. Stock solution of Givinostat, […]2375 (metabolites), and internal standard ITF2400 were prepared in ACN/water 1:1 at 1 mg/mL. Working solutions were prepared by sequential dilution in water:ACN 8:2. Brains were homogenized in 20 mM ammonium formate buffer (1 g/5 mL). In total, 45 μL of blank plasma or brain homogenates was added to 200 μL of ACN containing ITF2400 at 25 ng/mL and acted as internal standards. Samples were vortexed for 3 min and centrifuged for 10 min at 5 °C at […]. Samples were transferred into a 96-well plate, dried under nitrogen flow, and resuspended in 200 μL 0.1% FA H2O/ACN (75:25). After vortexing, samples were injected into LC-MS/MS. Samples were analyzed on a UPLC Acquity (Waters, Milford, MA, USA) coupled with an API 3200 Triple Quadrupole (ABSciex). Mobile phases were water and ACN with 0.1% FA on a Kinetex 2.6 μm C18 100 A 75 × 3 mm (Phenomenex, Torrance, CA, USA). Analytes were quantified in MRM ESI positive mode. […] Pharmacokinetic parameters were calculated using Excel Add in (PK Solver 2.0, Excel 2007 Microsoft add in). AUCs were calculated using an NCA by the linear trapezoidal rule, and a uniform weight was performed as a first approach. Graphical concentration-time curves were produced after Log transformation. The ke was estimated from the terminal part of the log-concentration-time plot including at least three data points excluding the Cmax.

A short description of data set [2]: Brain penetration after i.v. injection (LC-MS/MS). It is filed as in vivo, Swiss CD1 mice. The following applies: mice. Here is the method:
as §1

The test system of another data set is Gli36ΔEGFR-2. Nature of the data set: MTT cytotoxicity, GBM cells. The following applies: Homo sapiens, 24 h of treatment, read-out: mean calculated IC50. In kind it is cell-based. Here is the method: (§2) Gli36ΔEGFR-2 and U87-MG were used as GBM in vitro models. Gli36ΔEGFR [27, 28], carrying the EGFRvIII mutation, was made resistant to TMZ after 1 month of in vitro exposure to 50 µM TMZ [29]. These cells were selected because the TMZ sensitivity was repeatedly tested in vitro and in vivo in orthotopic GBM models. Both Gli36ΔEGFR-2 and U87-MG were maintained in Dulbecco’s Modified Eagle Medium (DMEM) High Glucose w/o sodium pyruvate (ECM0101L, Euroclone, Milan, Italy) supplemented with 10% fetal bovine serum (FBS, ECS0180L, Euroclone, Milan, Italy), 4 mM L-glutamine (ECB3000D, Euroclone, Milan, Italy), and 100 U ml^−1 penicillin/streptomycin (P/S) (ECB3001B, Euroclone, Milan, Italy). Normal human astrocytes (NHAs, CC-2565, Lonza, Basel, Switzerland) were used as healthy astrocytes and maintained in AGM^TM Astrocyte Growth Medium BulletKit^TM (CC-3186, Lonza) as per the manufacturer’s protocol. Human cerebral microvascular endothelial cells (hCMECs), provided by Dr. S. Bourdoulous (Institut Cochin, Inserm, Paris, France), were used as a model of brain endothelial cells and cultured as reported in the literature. […]
(§3) The effect of free or encapsulated Givinostat was assessed by the MTT assay. […] At the designated times, the assay was performed as per the manufacturer’s protocol and absorbance was measured at 570 nm using a microplate reader (SPECTROstar Nano, BMG LABTECH, Ortenberg, Germany). […]

A short description of data set [3]: MTT cytotoxicity, healthy astrocytes. It is filed as cell-based. The following applies: human, normal human astrocytes (NHA), doses between 0.1 and 10 μM, read-out: cell viability. The method, then:
as §2, §3

The next data set has as its system LDLR. Nature of the data set: Immunoblot of receptor level in Gli36ΔEGFR-2. It is filed as cell-based, human. The following applies: Western blot; Figure 8 legend: LIP-GIV. Here is the method: (§4) Whole cell lysates were obtained by washing cells twice in cold PBS and harvesting in 60 μL of radioimmunoprecipitation assay (RIPA) buffer (cat. no. 89901, ThermoFisher) supplemented with 1% of protease and phosphatase inhibitor cocktail (cat. no. 78446, ThermoFisher). Whole cell lysates were quantified using a BCA Protein Assay Kit (cat. No. 23227, ThermoFisher) and separated by electrophoresis through precast gels (NuPAGE^TM 4–12% Bis-Tris, 1.0 mm, Mini Protein Gel 10 or 15-wells, cat. No. NP0321 and NP0323, ThermoFisher).
(§5) Proteins were transferred to nitrocellulose membranes using iBlot^TM Transfer Stack (cat. No. IB301002, ThermoFisher) and membranes were blocked either in 5% milk or in 5% BSA in TBS with 0.1% Tween-20 (TBST) for 1 h. Membranes were then incubated overnight at 4 °C with the following primary antibodies: Acetyl-α-Tubulin (5335, 1:1000), α-Tubulin (2144, 1:1000), Histone H3 (9715, 1:1000) and β-Tubulin (2146, 1:1000) purchased from CST; β-Actin (MA5-15739, 1:5000), GAPDH (MA1-16757, 1:5000), VLDLR (MA5-24790, 1:1000), ABCA1 (PA1-16789, 1:500), LRP1 (MA1-27198, 1:500), and LDLR (PA5-22976, 1:1000) purchased from ThermoFisher. Membranes were incubated with secondary anti-rabbit antibody (A0545, 1:5000, Merck) or anti-mouse antibody (G21040, 1:20,000, Invitrogen) for 1 h at RT. Bands were detected using Immobilion ECL Ultra Western HRP Substrate (WBULS0100, Merck) under chemiluminescence using an Amersham Imager 600 (Cytiva, Marlborough MA, USA). Quantifications were made using ImageLab Software Version 6.1 (Bio-Rad, www.bio-rad.com).

A further data set concerns LRP1. Nature of the data set: Immunoblot of receptor level in Gli36ΔEGFR-2. It is filed as cell-based, human. The following applies: Western blot; Figure 8 legend: LIP-GIV. Here is the method:
as §4, §5
For orientation: In western blotting, separated proteins are transferred to a membrane and probed.

In another data set the test system is VLDLR. Briefly: Immunoblot of receptor level in Gli36ΔEGFR-2. It is filed as cell-based, human. The following applies: Western blot; Figure 8 legend: LIP-GIV. The method, then: as §4, §5
A further data set relates to ABCA1. Briefly: Immunoblot of ABCA1 level in Gli36ΔEGFR-2. In kind it is cell-based, human. The following applies: Western blot; Figure 8 legend: LIP-GIV, 24 h. The method, then:
as §4
Proteins were transferred to nitrocellulose membranes using iBlot^TM Transfer Stack (cat. No. IB301002, ThermoFisher) and membranes were blocked either in 5% milk or in 5% BSA in TBS with 0.1% Tween-20 (TBST) for 1 h. […] Bands were detected using Immobilion ECL Ultra Western HRP Substrate (WBULS0100, Merck) under chemiluminescence using an Amersham Imager 600 (Cytiva, Marlborough MA, USA). Quantifications were made using ImageLab Software Version 6.1 (Bio-Rad, www.bio-rad.com).

Another data set deals with U87-MG. Also noted: method as in PMID 25053824. The following applies: cited from earlier work.
A further data set concerns T98G. Also noted: method as in PMID 25053824. The following applies: cited from earlier work.

Regarding `CCN(CC)Cc1ccc2cc(COC(=O)Nc3ccc(C(=O)NO)cc3)ccc2c1` [Givinostat, [6-diethylaminomethyl) naphtalen-2-yl] methyl N-[4-(hydroxycarbamoyl) phenyl] carbamate], the concentration at 5 min is 1030 ng/mL in data set [1] (7.5 mg/kg i.v., 5 min, read-out: Givinostat plasma level) and 102 ng/g in data set [2] (Swiss CD1, mouse, brain, iv, 7.5 mg/kg i.v., 5 min, read-out: Givinostat brain level). In addition, the concentration at 10 min in [1] (7.5 mg/kg i.v., 10 min, read-out: Givinostat plasma level) was 597 ng/mL; in [2] (Swiss CD1, mouse, brain, iv, 7.5 mg/kg i.v., 10 min, read-out: Givinostat brain level) it was 101 ng/g. For the same molecule, the concentration at 0.25 h in data set [1] (7.5 mg/kg i.v., 0.25 h, read-out: Givinostat plasma level) came out at 431 ng/mL; in data set [2] (Swiss CD1, mouse, brain, iv, 7.5 mg/kg i.v., 0.25 h, read-out: Givinostat brain level) it was 90 ng/g. Besides, the concentration at 0.5 h came to 256 ng/mL in data set [1] (7.5 mg/kg i.v., 0.5 h, read-out: Givinostat plasma level) and 83 ng/g in [2] (Swiss CD1, mouse, brain, iv, 7.5 mg/kg i.v., 0.5 h, read-out: Givinostat brain level). For the same molecule, the concentration at 1 h in data set [1] (7.5 mg/kg i.v., 1 h, read-out: Givinostat plasma level) was 75 ng/mL; in data set [2] (Swiss CD1, mouse, brain, iv, 7.5 mg/kg i.v., 1 h, read-out: Givinostat brain level), 44 ng/g. In addition, the concentration at 2 h stood at 19 ng/mL in data set [1] (7.5 mg/kg i.v., 2 h, read-out: Givinostat plasma level) and 30 ng/g in [2] (Swiss CD1, mouse, brain, iv, 7.5 mg/kg i.v., 2 h, read-out: Givinostat brain level). In addition, the concentration at 4 h in [1] (7.5 mg/kg i.v., 4 h, read-out: Givinostat plasma level) was determined as 6 ng/mL; in [2] (Swiss CD1, mouse, brain, iv, 7.5 mg/kg i.v., 4 h, read-out: Givinostat brain level), 13 ng/g. Also, the concentration at 6 h in data set [1] (7.5 mg/kg i.v., 6 h, read-out: Givinostat plasma level) worked out at 4 ng/mL; in [2] (Swiss CD1, mouse, brain, iv, 7.5 mg/kg i.v., 6 h, read-out: Givinostat brain level), 7 ng/g. Also, the MRT last in data set [1] (7.5 mg/kg single i.v., read-out: mean residence time (MRT0-t)) amounted to 0.6 h. In addition, in [1] (7.5 mg/kg single i.v., read-out: plasma clearance (CL) (converted)), the clearance is 257 mL/min/kg. Also, the AUC(0-t) in data set [1] (7.5 mg/kg single i.v., read-out: plasma exposure (AUC0-t)) came out at 478 ng·h/mL. Also, in data set [1] (7.5 mg/kg single i.v., read-out: volume of distribution), the Vd is 10.8 L/kg. The half-life in data set [1] (Givinostat 7.5 mg/kg single i.v., read-out: half-life (t1/2) (converted)) is 1.7 h. Also, the Kp in [2] (Swiss CD1, mouse, brain and plasma, iv, 7.5 mg/kg single i.v., read-out: AUCbrain/AUCplasma ratio) is 0.372. Moreover, the peak concentration (Cmax) in data set [2] (Swiss CD1, mouse, brain, iv, 7.5 mg/kg single i.v.) was about 100 ng/g. For the same molecule, the Givinostat brain level entry in [2] (7.5 mg/kg i.v., 24 h) is given as “below detection limits”. Further, the IC50 in the data set on Gli36ΔEGFR-2 is 0.75 µM. In data set [3], the viability at 24 h was at least 100%. Besides, the LDLR protein level entry in the data set on LDLR is on record as “significantly reduced”. Moreover, in the data set on LRP1, the LRP1 protein level result is recorded as “significantly reduced”. Further, the VLDLR protein level entry in the data set with VLDLR is reported as “significantly reduced”. For the same molecule, the ABCA1 expression result in the data set with ABCA1 is “non-significant trend towards a decrease”.

Turning to `Cn1nnc2c(C(N)=O)ncn2c1=O` [TMZ, temozolomide], the IC50 in the data set with U87-MG and in the data set with T98G was 100 to 500 µM throughout.
